From patent publication US11878973B2, “Bicyclic compounds and their uses” (NOVARTIS AG, priority 2021, dated 2024) come the findings set out here.

Read-outs that look alike come from different tables or passages of the source. Some results are limits rather than exact numbers.

One test relates to DLD1-WRN-KO cells. As to the kind of experiment: Proliferation assay DLD1-WRN-KO (CellTiterGlo, 96 hours; off-target effects). The conditions noted are these: read-out: Proliferation Assay DLD1-WRN-KO (GI50).
For the next test, the target named is WRN helicase (Homo sapiens (Human), UniProt Q14191). As to the kind of experiment: In vitro enzymatic activity assay on WRN helicase (DNA dependent ATPase assay, ADP-Glo). It is filed as biochemical. The conditions noted are these: geometric means of at least 2 determinations; read-out: WRN ATPase Activity (IC50). An excerpt:
An ATPase assay was set up to measure the DNA dependent ATP hydrolysis activity of WRN helicase. This assay was used also to assess the inhibition properties of compounds of the invention on DNA dependent WRN ATPase activity.
The core helicase motif of the WRN protein (aa N517-P1238) was produced for this assay (protein production as described above). […] The ADP-Glo assay kit (Promega, Madison, WI) allowing the quantification of ADP produced in ATP hydrolysis reactions was used for setting up this assay.
Time course experiments were first performed in order to determine the best enzymatic assay conditions (including buffer conditions, reaction time and concentrations of protein, ATP and DNA substrates). A typical reaction consists of 10 nM WRN protein, 0.2 nM FLAP26, and 300 micromolar ATP in the following assay buffer: 30 mM Tris pH7.5, 2 mM MgCl2, 0.02% BSA, 50 mM NaCl, 0.1% pluronic F127 prepared in DNAse free water. To evaluate the inhibition properties of compounds of the invention, serial dilutions were prepared in DMSO (10 half log dilutions from a 10 mM DMSO solution). […] The reaction was started by addition of 2.5 microliters of FLAP26 at 0.4 nM and incubated for 30 minutes at room temperature. The reaction was stopped with the addition of 5 microliters of the first ADP-Glo reagent and incubated for one hour to remove the excess amount of ATP. Afterwards, 10 microliters of ATP detection reagent was added and incubated for an additional hour before reading. Luminescence output was recorded using Tecan 1000 reader, with 5 minutes delay before reading. Each concentration of compound was tested in duplicates in the assay plate.
Following normalization of activity values for the wells to % inhibition (% inhibition=[(high control-sample)/(high control-low control)]×100), IC50 fitting was carried out from the duplicate determinations present on each plate according to [4]. Data analysis can also be carried out using commercially available software designed to derive IC50 values using 4-parameter fits (e.g. GraphPad Prism, XL fit). The reported IC50 values are the geometrical means of at least 2 independent replicates.
A general note: ADP-Glo first removes unused ATP, then detects ADP through luciferase.

A further test has as its system SW48 cells. As to the kind of experiment: Proliferation assay SW48 (CellTiterGlo, 96 hours). (In general: ATP-based viability assays read luminescence as a measure of living cells.)
[1] abbreviates: Homo sapiens, SW48, read-out: Proliferation Assay SW48 (GI50).
Where [2] appears, read: DLD1-WRN-KO cell line, geometric means of at least 2 determinations.
The mark [3] stands for this setting: read-out: Proliferation Assay SW48 (GI50), SW48 cell line, geometric means of at least 2 determinations.

WRN helicase, sequence (Q14191 517-1238): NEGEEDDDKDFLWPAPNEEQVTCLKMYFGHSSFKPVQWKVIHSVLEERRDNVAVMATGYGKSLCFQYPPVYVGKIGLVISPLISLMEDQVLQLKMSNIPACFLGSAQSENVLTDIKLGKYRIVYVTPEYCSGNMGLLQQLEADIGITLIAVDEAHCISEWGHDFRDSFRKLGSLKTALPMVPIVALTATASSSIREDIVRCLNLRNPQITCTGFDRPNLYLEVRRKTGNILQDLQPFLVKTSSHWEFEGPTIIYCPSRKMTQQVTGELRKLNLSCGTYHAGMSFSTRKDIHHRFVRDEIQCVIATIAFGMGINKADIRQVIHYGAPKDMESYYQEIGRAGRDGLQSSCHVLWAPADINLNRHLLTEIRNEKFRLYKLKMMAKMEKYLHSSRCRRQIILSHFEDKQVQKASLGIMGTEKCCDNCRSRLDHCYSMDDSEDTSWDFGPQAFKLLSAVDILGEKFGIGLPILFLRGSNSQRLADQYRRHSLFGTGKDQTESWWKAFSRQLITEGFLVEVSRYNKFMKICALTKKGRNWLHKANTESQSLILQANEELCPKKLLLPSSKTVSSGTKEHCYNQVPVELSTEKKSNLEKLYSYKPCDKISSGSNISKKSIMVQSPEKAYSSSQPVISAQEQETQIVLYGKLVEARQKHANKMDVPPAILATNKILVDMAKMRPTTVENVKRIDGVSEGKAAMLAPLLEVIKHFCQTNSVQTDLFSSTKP
Protocol for SW48 cells: The WRN-knockdown insensitive colon carcinoma cell line DLD-1 (RRID: CVCL_0248) was obtained from the Korean Cell Line Bank (KCLB), and used to generate a derivative in which the endogenous WRN gene copies were knocked out by CRISPR-mediated editing using standard CRISPR methods. The resulting cell line, DLD1-WRN—KO, was used to assess potential off-target compound effects.
All cells were maintained at 37° C. in a humidified 5% CO2 incubator.
For data analysis, the assay background signal that was determined in wells containing medium, but no cells, was subtracted from all other data points prior to further calculations. The extent of growth inhibition and potential cell kill was assessed by comparing the ATP levels (measured using CellTiterGlo, Promega) in compound-treated cells with those present at the time of compound addition. […] 100%, 0% and −100% signify absence of growth inhibition, growth stasis, and complete cell kill, respectively. Compound concentrations leading to half-maximal growth inhibition (G150) and residual cell viability at the highest tested compound concentration (Data (cmax), expressed in percent) were routinely calculated. Data analysis can also be carried out using commercially available software designed to derive IC50 values using 4-parameter fits (e.g. GraphPad Prism, XL fit). The reported GI50 values are the geometrical means of at least 2 independent replicates.

A word on the IC50: it is the concentration at which inhibition is half-maximal. For `CCc1c(N2CCN(C(=O)c3ncccc3O)CC2)c(=O)n2nc(N3CCCC(F)C3)nc2n1CC(=O)Nc1cc(Cl)c(C(F)(F)F)cc1C` (racemic) [Example 13, rac-N-(5-chloro-2-methyl-4-(trifluoromethyl)phenyl)-2-(5-ethyl-2-(3-fluoropiperidin-1-yl)-6-(4-(3-hydroxypicolinoyl)piperazin-1-yl)-7-oxo-[1,2,4]triazolo[1,5-a]pyrimidin-4(7H)-yl)acetamide], the GI50 in the test on DLD1-WRN-KO cells (Homo sapiens) amounted to 5200 nM; in the test with SW48 cells (setting [1]), 160 nM. At WRN helicase, the half-maximal inhibitory concentration (IC50) was 30 nM.
For `CCc1c(N2CCN(C(=O)c3ncccc3O)CC2)c(=O)n2nc(N3CCCC(F)C3)nc2n1CC(=O)Nc1ccc(C(F)(F)F)cc1C` (racemic) [Example 14, rac-2-(5-ethyl-2-(3-fluoropiperidin-1-yl)-6-(4-(3-hydroxypicolinoyl)piperazin-1-yl)-7-oxo-[1,2,4]triazolo[1,5-a]pyrimidin-4(7H)-yl)-N-(2-methyl-4-(trifluoromethyl)phenyl)acetamide], in that order: more than 10000 nM, 480 nM and 140 nM.
Regarding `CCc1c(N2CCN(C(=O)c3ncccc3O)CC2)c(=O)n2nc(N3CCCC(F)C3)nc2n1CC(=O)Nc1ccc(C(F)(F)F)cc1Cl` (racemic) [Example 15, rac-N-(2-chloro-4-(trifluoromethyl)phenyl)-2-(5-ethyl-2-(3-fluoropiperidin-1-yl)-6-(4-(3-hydroxypicolinoyl)piperazin-1-yl)-7-oxo-[1,2,4]triazolo[1,5-a]pyrimidin-4(7H)-yl)acetamide], the results for the GI50 in the test with DLD1-WRN-KO cells (Homo sapiens) and in the test on SW48 cells (setting [1]) were more than 10000 nM and 440 nM, respectively. For the same molecule, the IC50 on WRN helicase was 110 nM.
On the same counts, the results for `CCc1c(N2CCN(C(=O)c3ncccc3O)CC2)c(=O)n2nc(N3CCCC(F)C3)nc2n1CC(=O)Nc1ccc(C(F)(F)F)nc1Cl` (racemic) [Example 16, rac-N-(2-chloro-6-(trifluoromethyl)pyridin-3-yl)-2-(5-ethyl-2-(3-fluoropiperidin-1-yl)-6-(4-(3-hydroxypicolinoyl)piperazin-1-yl)-7-oxo-[1,2,4]triazolo[1,5-a]pyrimidin-4(7H)-yl)acetamide] are more than 10000 nM, 320 nM and 230 nM.
For the molecule `CCc1c(N2CCN(C(=O)c3ncccc3O)CC2)c(=O)n2nc(C3=CCC(OC)CC3)nc2n1CC(=O)Nc1ccc(C(F)(F)F)nc1C` (racemic) [Example 26, rac-2-(5-ethyl-6-(4-(3-hydroxypicolinoyl)piperazin-1-yl)-2-(4-methoxycyclohex-1-en-1-yl)-7-oxo-[1,2,4]triazolo[1,5-a]pyrimidin-4(7H)-yl)-N-(2-methyl-6-(trifluoromethyl)pyridin-3-yl)acetamide], the GI50 in the test on DLD1-WRN-KO cells (Homo sapiens) is more than 10000 nM; with SW48 cells (setting [1]), 80 nM. Besides, the concentration for half-maximal inhibition (IC50) on WRN helicase turned out to be 250 nM.
On to `CCc1c(N2CCN(C(=O)c3ncccc3O)CC2)c(=O)n2nc(C3=CCC(OC)CC3)nc2n1CC(=O)Nc1ccc(C(F)(F)F)cc1C` (racemic) [Example 80, rac-2-(5-ethyl-6-(4-(3-hydroxypicolinoyl)piperazin-1-yl)-2-(4-methoxycyclohex-1-en-1-yl)-7-oxo-[1,2,4]triazolo[1,5-a]pyrimidin-4(7H)-yl)-N-(2-methyl-4-(trifluoromethyl)phenyl)acetamide], for which the results for the GI50 with DLD1-WRN-KO cells (Homo sapiens) and in the test on SW48 cells (setting [1]) were more than 10000 nM and 70 nM, respectively. Further, the 50% inhibitory concentration (IC50) at WRN helicase turned out to be 60 nM.
For `CCc1c(N2CCN(C(=O)c3ncccc3O)CC2)c(=O)n2nc(C3=CCC(F)CN3)nc2n1CC(=O)Nc1ccc(C(F)(F)F)cc1C` (racemic) [Example 111, rac-2-(5-ethyl-2-(5-fluoro-1,4,5,6-tetrahydropyridin-2-yl)-6-(4-(3-hydroxypicolinoyl)piperazin-1-yl)-7-oxo-[1,2,4]triazolo[1,5-a]pyrimidin-4(7H)-yl)-N-(2-methyl-4-(trifluoromethyl)phenyl)acetamide], in that order: more than 10000 nM, 1120 nM and 330 nM.
Turning to `CCc1c(N2CCN(C(=O)c3ncccc3O)CC2)c(=O)n2nc(N3CCC[C@@H](F)C3)nc2n1CC(=O)Nc1ccc(C(F)(F)F)cc1Cl` (single isomer, unassigned) [Example 15a, ((R)—N-(2-chloro-4-(trifluoromethyl)phenyl)-2-(5-ethyl-2-(3-fluoropiperidin-1-yl)-6-(4-(3-hydroxypicolinoyl)piperazin-1-yl)-7-oxo-[1,2,4]triazolo[1,5-a]pyrimidin-4(7H)-yl)acetamide) or ((S)—N-(2-chloro-4-(trifluoromethyl)phenyl)-2-(5-ethyl-2-(3-fluoropiperidin-1-yl)-6-(4-(3-hydroxypicolinoyl)piperazin-1-yl)-7-oxo-[1,2,4]triazolo[1,5-a]pyrimidin-4(7H)-yl)acetamide)], the GI50 in the test on DLD1-WRN-KO cells (setting [2]) is more than 10000 nM; in the test on SW48 cells (setting [3]), 400 nM. Moreover, at WRN helicase, the IC50 is 140 nM.
On the same counts, the results for `CCc1c(N2CCN(C(=O)c3ncccc3O)CC2)c(=O)n2nc(N3CCC[C@@H](F)C3)nc2n1CC(=O)Nc1ccc(C(F)(F)F)cc1Cl` (single isomer, unassigned) [Example 15b, ((R)—N-(2-chloro-4-(trifluoromethyl)phenyl)-2-(5-ethyl-2-(3-fluoropiperidin-1-yl)-6-(4-(3-hydroxypicolinoyl)piperazin-1-yl)-7-oxo-[1,2,4]triazolo[1,5-a]pyrimidin-4(7H)-yl)acetamide) or ((S)—N-(2-chloro-4-(trifluoromethyl)phenyl)-2-(5-ethyl-2-(3-fluoropiperidin-1-yl)-6-(4-(3-hydroxypicolinoyl)piperazin-1-yl)-7-oxo-[1,2,4]triazolo[1,5-a]pyrimidin-4(7H)-yl)acetamide)] are more than 10000 nM, 360 nM and 120 nM.
As to `CCc1c(N2CCN(C(=O)c3nccc(Cl)c3O)CC2)c(=O)n2nc(C3=CC[C@H](OC)CC3)nc2n1CC(=O)Nc1ccc(C(F)(F)F)nc1Cl` (single isomer, unassigned) [Example 24a], the results for the GI50 in the test with DLD1-WRN-KO cells (setting [2]) and with SW48 cells (setting [3]) were more than 10000 nM and 40 nM, respectively. Moreover, the IC50 on WRN helicase stood at 110 nM.
For `CCc1c(N2CCN(C(=O)c3ncnc(C)c3O)CC2)c(=O)n2nc(C3=CCOCC3)nc2n1CC(=O)Nc1ccc(C(F)(F)F)cc1Cl` [Example 42, N-(2-chloro-4-(trifluoromethyl)phenyl)-2-(2-(3,6-dihydro-2H-pyran-4-yl)-5-ethyl-6-(4-(5-hydroxy-6-methylpyrimidine-4-carbonyl)piperazin-1-yl)-7-oxo-[1,2,4]triazolo[1,5-a]pyrimidin-4(7H)-yl)acetamide], the GI50 with SW48 cells (setting [1]) is 50 nM.
As to `[2H]C([2H])(C(=O)Nc1ccc(C(F)(F)F)cc1Cl)n1c(CC)c(N2CCN(C(=O)c3ncnc(C)c3O)CC2)c(=O)n2nc(C3=CCOCC3)nc12` [Example 43, N-(2-chloro-4-(trifluoromethyl)phenyl)-2-(2-(3,6-dihydro-2H-pyran-4-yl)-5-ethyl-6-(4-(5-hydroxy-6-methylpyrimidine-4-carbonyl)piperazin-1-yl)-7-oxo-[1,2,4]triazolo[1,5-a]pyrimidin-4(7H)-yl)acetamide-2,2-d2], in the test on SW48 cells (setting [1]), the GI50 came to 50 nM.
With `Cc1c(N2CCN(C(=O)c3ncccc3O)CC2)c(=O)n2nc(C3=CCN(C(=O)OC(C)(C)C)CC3)nc2n1CC(=O)Nc1ccc(C(F)(F)F)cc1` [Example 126, tert-butyl 4-(6-(4-(3-hydroxypicolinoyl)piperazin-1-yl)-5-methyl-7-oxo-4-(2-oxo-2-((4-(trifluoromethyl)phenyl)amino)ethyl)-4,7-dihydro-[1,2,4]triazolo[1,5-a]pyrimidin-2-yl)-3,6-dihydropyridine-1(2H)-carboxylate], on WRN helicase, the 50% inhibitory concentration (IC50) is 130 nM.
As to `[2H]C1([2H])N(C(=O)c2ncnc(C)c2O)C([2H])([2H])C([2H])([2H])N(c2c(CC)n(CC(=O)Nc3ccc(C(F)(F)F)cc3Cl)c3nc(C4=CCOCC4)nn3c2=O)C1([2H])[2H]` [Example 133, N-(2-chloro-4-(trifluoromethyl)phenyl)-2-(2-(3,6-dihydro-2H-pyran-4-yl)-5-ethyl-6-(4-(5-hydroxy-6-methylpyrimidine-4-carbonyl)piperazin-1-yl-2,2,3,3,5,5,6,6-d8)-7-oxo-[1,2,4]triazolo[1,5-a]pyrimidin-4(7H)-yl)acetamide], the GI50 in the test on SW48 cells (setting [1]) turned out to be 60 nM.
